Measured values taken from patent US12583851B2, “Heteroaryl-substituted pyrazine derivatives as pesticides” (Elanco Animal Health GmbH, priority 2019, dated 2026).

Columns and labels:
Format in all cases: in vivo
[1] = test system: Rhipicephalus (Boophilus) microplus larvae (strain Parkhurst, resistant against synthetic pyrethroids); experiment: Rhipicephalus (Boophilus) microplus in-vitro contact test, larval cattle tick; settings: after 48 hours, read-out: efficacy (larvae dead or moribund); for pest or weed control at 1 µg/cm2, 100 g/ha: 1 μg/cm^2 (=100 g/ha); for pest or weed control at 5 µg/cm2, 500 g/ha: 5 μg/cm^2 (=500 g/ha)
Method in brief: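 Pyrethroid-resistant larvae (strain Parkhurst), 20–50 per tube, exposed by contact to a dried acetone film of compound (5 μg/cm² at 900 ppm) for 48 h at 27 °C and 85% humidity. Percent dead or moribund larvae scored from negative geotactic behaviour.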

[2] = test system: green peach aphid (Myzus persicae); experiment: Myzus persicae oral test; settings: 120 h, 0.8 ppm, after 5 days
Procedure: Solvent: 100 parts by weight acetone
To produce a suitable preparation of active compound, 1 part by weight of active compound is mixed with the stated amount of solvent, and the concentrate is diluted with water to the desired concentration.
50 μL compound solution is filled in microtiter plates and 150 μL IPL41 insect medium (33%+15% sugar) is added to obtain a total volume of 200 μL per well. Afterwards the plates are sealed with parafilm through which a mixed population of the green peach aphid (Myzus persicae) can suck on the compound preparation.
After 5 days mortality in % is determined. 100% means all aphids have been killed and 0% means none of the aphids have been killed.

[3] = test system: adult brown dog ticks (Rhipicephalus sanguineus); experiment: Rhipicephalus sanguineus in-vitro contact test, adult brown dog ticks; settings: 48 h, 5 μg/cm^2 (=500 g/ha), after 48 hours, read-out: efficacy (ticks dead or moribund)
Method in brief: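 Acetone solution coated on glass tube inner walls (900 ppm, giving 5 μg/cm^2); after drying, 5–10 adult ticks added and kept 48 h at room temperature. Efficacy scored as percent dead or moribund, i.e., ticks unable to climb away on a 45–50 °C heating plate within 5 min.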

[4] = test system: adult cat fleas (Ctenocephalides felis); experiment: Ctenocephalides felis in-vitro contact test, adult cat flea; settings: 5 μg/cm^2 (=500 g/ha), after 48 hours, read-out: efficacy (fleas dead or moribund)
Method in brief: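 Acetone solution coated onto glass tube walls; 900 ppm gives 5 μg/cm². Once dry, 5–10 adult fleas per tube held at room temperature for 48 h. Efficacy (%) is the share of fleas dead or moribund, i.e. unable to climb away on a 45–50° C heating plate.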

[5] = test system: brown planthopper (Nilaparvata lugens); experiment: Nilaparvata lugens spray test; settings: 96 h, 100 g/ha, rice plants, after 4 days
Procedure: Nilaparvata lugens—Spray Test
Solvent: 78.0 parts by weight of acetone • • 1.5 parts by weight of dimethylformamide
Emulsifier: alkylarylpolyglycol ether
To produce a suitable preparation of active compound, 1 part by weight of active compound is mixed with the stated amount of solvents and is diluted with water, containing an emulsifier concentration of 1000 ppm, to the desired concentration. Further test concentrations are prepared by dilution with emulsifier containing water.
Rice plants (Oryza sativa) are sprayed with a preparation of the active ingredient of the desired concentration and the plants are infested with the brown planthopper (Nilaparvata lugens).
After 4 days mortality in % is determined. 100% means all planthoppers have been killed and 0% means none of the planthoppers have been killed.

SMILES | pest or weed control at 1 µg/cm2, 100 g/ha [1] [%] | pest or weed control at 5 µg/cm2, 500 g/ha [1] [%] | mortality at 0.8 ppm [2] [%] | pest or weed control at 5 µg/cm2, 500 g/ha [3] [%] | pest or weed control at 5 µg/cm2, 500 g/ha [4] [%] | mortality at 100 g/ha [5] [%]
CC(NC(=O)c1cc(Cl)cc(C(F)(F)F)c1)c1nccnc1-c1ncccn1 (racemic) [Example I-10, (rac)-3-Chloro-N-(1-(3-(pyrimidin-2-yl)pyrazin-2-yl)ethyl)-5-(trifluoromethyl)benzamide] | 90 | 80 | 90 | 80 | 80 | –
CC(NC(=O)c1cc(C(F)(F)F)cc(C(F)(F)F)c1)c1nccnc1-c1ncccn1 (racemic) [Example I-8, (rac)-N-(1-(3-(Pyrimidin-2-yl)pyrazin-2-yl)ethyl)-3,5-bis(trifluoromethyl)benzamide] | 100 | 100 | 100 | – | – | 100
